The text below walks through data of patent publication US8163960B2, “Process for preparing and drying solid rasagiline base” (Teva Pharmaceutical Industries, Ltd., priority 2008, dated 2012).

A short description of series [1]: Stability test for dried Rasagiline Tartrate Pure. It counts as physicochemical. The settings on record: for Chromatographic purity by HPLC: 1-Aminoindan / Chromatographic purity by HPLC: Any other / Description / ID by HPLC / L.O.D. / S-isomer by HPLC: RT, polyethylene bag.
Description: A batch of dry Rasagiline Tartrate Pure produced in Example ?? was stored at ambient temperature (RT) in polyethylene bag. The solid was sampled and analyzed at time zero, than after 2 weeks and 4 weeks from time zero.
A short description of a further series: physchem. As to conditions: 25 °C.
A short description of series [2]: Stability test for wet Rasagiline Tartrate Pure. It counts as physicochemical. As to conditions: for L.O.D.: samples dried prior to analysis; for Description: wet with isopropanol and water; for Description / Chromatographic purity by HPLC: 1-Aminoindan / Chromatographic purity by HPLC: Any other / ID by HPLC / S-isomer by HPLC: RT, polyethylene bag; for Chromatographic purity by HPLC: 1-Aminoindan / Chromatographic purity by HPLC: Any other / ID by HPLC / S-isomer by HPLC: wet. From the text: Rasagiline Tartrate Pure wet with isopropanol and water was stored at ambient temperature (RT) in polyethylene bag. The solid was sampled, dried to constant weight and analyzed.

The conditions of series [3]: oil. The method, then: Approximately four (4) grams of rasagiline base was introduced into the sublimation reservoir of a standard Sigma-Aldrich glass sublimation apparatus, (Cat. No. Z221171-1EA) with internal diameter of 3 cm. The apparatus was equipped with vacuum pump, vacuumeter and circulating ice-water bath for cooling of the apparatus' sublimation head. The apparatus was then closed and circulation of coolant at 0 to 1° C. was started. The vacuum was then built to a pressure (“P”) of 2-3 mbar and the reservoir was introduced into thermostatic water bath maintained at temperature (“T”) of 21° C.
The process was controlled by visual observation of the sublimed solid forming on the sublimation head. After sublimation completed the operation time was recorded, the apparatus was opened and the sublimed solid was removed from the head and weighed.
The mean sublimation rate was calculated as follows:
Mean Sublimation Rate Rs1: Rs1=m/M·t [gg^−1hr^−1]
Mean Sublimation Rate Rs2: Rs2=m/S·t [gm^−2hr^−1]
Mean Relative Sublimation Rate R: R=m·100/M·t [%/hr] m—mass of sublimed material, g M—mass of starting material, g t=sublimation time, hrs S=sublimation area (apparatus section area), m^2

[4] abbreviates: Ex. 22, 20 mbar, 35 °C, 5.33 hr.
Setting [5] is: Ex. 23, 2-3 mbar, 22 °C, 3.0 hr.
The mark [6] stands for this setting: Ex. 24, 2-3 mbar, 60 °C, 1.3 hr.

Counter-ions that a name gives are not always drawn. Like-named read-outs stand apart in the source and are kept apart here.

On to `C#CCN[C@@H]1CCc2ccccc21.C#CCN[C@@H]1CCc2ccccc21.O=C(O)C(O)C(O)C(=O)O` [Dry GA-18062], for which, in series [1] (2 weeks), the “Chromatographic purity by HPLC: 1-Aminoindan” value was “L.T. 0.03%”, the “Chromatographic purity by HPLC: Any other” value is on record as “L.T. 0.03%”, the Description entry is “White” and the “ID by HPLC” value is listed as “Conforms”. In addition, in series [1] (2 weeks), the L.O.D. was 0.16% and the “S-isomer by HPLC” value was “L.T. 0.3%”. Also, in series [1] (4 weeks), the “Chromatographic purity by HPLC: 1-Aminoindan” value is “L.T. 0.03%”, the “Chromatographic purity by HPLC: Any other” value was “L.T. 0.03%”, the Description result was “White” and the “ID by HPLC” value is “Conforms”. In series [1] (4 weeks), the L.O.D. stood at 0.03% and the “S-isomer by HPLC” value is on record as “L.T. 0.3%”. Also, in series [1] (Start (t = 0)), the “Chromatographic purity by HPLC: 1-Aminoindan” value is on record as “L.T. 0.03%”, the “Chromatographic purity by HPLC: Any other” value is reported as “L.T. 0.03%”, the Description result is recorded as “White” and the “ID by HPLC” value was “Conforms”. Besides, in series [1] (Start (t = 0)), the L.O.D. turned out to be 0.03% and the “S-isomer by HPLC” value is “L.T. 0.3%”. Moreover, the Time limitation entry in series [1] (Storage temperature R.T.) is on record as “One month”.

Take `C#CCN[C@@H]1CCc2ccccc21` [rasagiline mesylate]: the solubility was found to be 570 mg/mL in the series “physchem” (pH 3.3, water) and 92 mg/mL in the series “physchem” (pH 6.7, water).

On to `C#CCN[C@@H]1CCc2ccccc21.C#CCN[C@@H]1CCc2ccccc21.O=C(O)C(O)C(O)C(=O)O` [Wet RB-2087], for which the Time limitation entry in series [2] (Storage temperature R.T.) is reported as “One month”. In series [2] (2 weeks), the L.O.D. came out at 0.05%, the Description result was “White”, the “Chromatographic purity by HPLC: 1-Aminoindan” value is “L.T. 0.03%” and the “Chromatographic purity by HPLC: Any other” value is recorded as “L.T. 0.03%”. Moreover, in series [2] (2 weeks), the “ID by HPLC” value is on record as “Conforms” and the “S-isomer by HPLC” value was “L.T. 0.3%”. Also, in series [2] (4 weeks), the L.O.D. is recorded as 0.04%, the Description result was “White”, the “Chromatographic purity by HPLC: 1-Aminoindan” value is reported as “L.T. 0.03%” and the “Chromatographic purity by HPLC: Any other” value is recorded as “L.T. 0.03%”. In series [2] (4 weeks), the “ID by HPLC” value was “Conforms” and the “S-isomer by HPLC” value is on record as “L.T. 0.3%”. In series [2] (Start (t = 0)), the L.O.D. came out at 0.01%, the Description result is listed as “White”, the “Chromatographic purity by HPLC: 1-Aminoindan” value is “L.T. 0.03%” and the “Chromatographic purity by HPLC: Any other” value was “L.T. 0.03%”. In addition, in series [2] (Start (t = 0)), the “ID by HPLC” value is recorded as “Conforms” and the “S-isomer by HPLC” value was “L.T. 0.3%”.

In the case of `C#CCNC1CCc2ccccc21` (racemic) [Rac.PAI oil, N-propargyl-1-aminoindan, reference compound], the “Mean relative sublimation rate R” value in series [3] (Ex. 21, 20 mbar, 22 °C, 8.0 hr) was determined as 0.0 %/hr; in series [3] (setting [4]), 0.0 %/hr; in series [3] (setting [5]) it was 0.08 %/hr; in series [3] (setting [6]), 2.5 %/hr. The “Mean sublimation rate Rs1” value in series [3] (Ex. 21, 20 mbar, 22 °C, 8.0 hr) worked out at 0.0 g/g/h; in series [3] (setting [4]), 0.0 g/g/h; in series [3] (Ex. 23, 2-3 mbar, 22 °C, 3.0 hr, listed as racemic PAI), 0.000833 g/g/h; in series [3] (Ex. 24, 2-3 mbar, 60 °C, 1.3 hr, listed as racemic PAI) it was 0.025 g/g/h. Moreover, the “Mean sublimation rate Rs2” value in series [3] (Ex. 21, 20 mbar, 22 °C, 8.0 hr) is recorded as 0.0 g/hr/m^2; in series [3] (setting [4]), 0.0 g/hr/m^2; in series [3] (setting [5]) it was 3.537 g/hr/m^2; in series [3] (setting [6]), 101.16 g/hr/m^2. Also, the Sublimed solid fraction is given as 0.0% in series [3] (Ex. 21, 20 mbar, 22 °C, 8.0 hr); 0.0% in series [3] (setting [4]); 0.25% in series [3] (setting [5]); 3.25% in series [3] (setting [6]). Also, the “−log Rs1” value is given as 3.08 in series [3] (setting [5]) and 1.60 in series [3] (setting [6]).
